The record followed here is patent US20150359798A1, “PIPERAZINYL DERIVATIVE REDUCES HIGH-FAT DIET-INDUCED ACCUMULATION OF FAT IN THE LIVERS, […]” (priority 2011, published 2015).

The test system of one experiment is ROCK II. The experiment is described as follows: ROCK II expression in HepG2 cells. It counts as cell-based. As to conditions: HepG2; for RhoA/ROCK II expression: exogenous GGPP or FPP alone. Here is the method:
(§1) HepG2 cells were treated with various concentrations of drugs for 24 hours. Reactions were terminated by washing twice with cold PBS, and the cells were then harvested, Proteins in the whole-cell lysate were homogenized in an ice-cold lysis buffer and a protease inhibitor (Sigma-Aldrich, St. Louis, Mo., U.S.A.). The homogenate was centrifuged at 90, 000 g for 15 minutes at 4° C., and supernatant was recovered as the total cellular protein. Cytosolic and membrane fractions of HepG2 cells were prepared using a. CNM (Cytosol Nuclear Membrane) compartment protein extraction kit (BioChain Institute Inc., Hayward, Calif., U.S.A.) according to the manufacturer's instructions. All of the fractionated protein solutions were stored at -80° C. until analysis. To measure the expression levels of proteins by drugs, the total cell protein was extracted after incubation with treatments for 24 hours and then Western blotting analysis was performed as described previously.

For the next experiment, the system named is ABCA1. The experiment is described as follows: ABCA1 expression in HepG2 cells. It counts as cell-based. Conditions: HepG2; for expression of ABCA1: FPP or GGPP (10 μM) alone. Here is the method:
as §1, with “−80°” for “-80°”

A further experiment has as its system PPARγ. The experiment is described as follows: PPARγ expression in HepG2 cells. It counts as cell-based. Conditions: HepG2; for expression of PPARγ: FPP or GGPP (10 μM) alone. On the procedure: as §1, with “−80°” for “-80°”
A further experiment relates to ROCKII. The experiment is described as follows: Table 4 ROCKII (% of control). It counts as cell-based. As to conditions: control group = 100 (%).
The test system of a further experiment is PDE-5A. The experiment is described as follows: Table 4 PDE-5A (% of control). It counts as cell-based. Conditions: control group = 100 (%).
Another experiment relates to Rho-kinase. The experiment is described as follows: Table 3 Rho-kinase (% of control). It counts as cell-based. As to conditions: 10 μM; control group = 100 (%).
Experiment [1] has as its system eNOS. The experiment is described as follows: Table 4 eNOS (% of control). As to conditions: control group = 100 (%). It counts as cell-based.
For the next experiment, the system named is PPAR-γ. The experiment is described as follows: Table 3 PPAR-γ (% of control). It counts as cell-based. As to conditions: 10 μM; control group = 100 (%).
The test system of experiment [2] is eNOS. The experiment is described as follows: Table 3 eNOS (% of control). It counts as cell-based. As to conditions: 10 μM; control group = 100 (%).
A further experiment has as its system p-HSL. The experiment is described as follows: Table 3 p-HSL (% of control). It counts as cell-based. Conditions: 10 μM; control group = 100 (%).
In the next experiment the test system is HMG CoA reductase. The experiment is described as follows: HMG CoA reductase expression in HepG2 cells (Western blotting). It counts as cell-based. Conditions: HepG2, mevalonate 60, 80, 100 μM. On the procedure:
The HepG2 hepatoma cell line was purchased from the American Type Culture Collection (ATCC; Manassas, Va., U.S.A.). Cells were cultured in DMEM. The culture media was supplemented with 5% heat-Inactivated FBS, penicillin (100 U/mL) and streptomycin (100 μg/mL). Cells were grown in a humidified atmosphere containing 5% CO2 at 37° C., in which the oxygen tension in the incubator was held at 140 mmHg (20% O2, v/v; normoxic conditions).
as §1, with “−80°” for “-80°”
A general note: A western blot detects proteins with antibodies after separation by electrophoresis.

In the next experiment the test system is mice fed with HFD. The experiment is described as follows: HFD-fed mice, 8 weeks, gavage: serum/liver lipids, body weight, food intake. It counts as in vivo. As to conditions: HFD mice, 8 weeks, 5 mg/kg. Here is the method: In the 8 week experiment, C57BL/6J male mice (21-22 g), after fasting, were fed a HFD as a model of hyperlipidemia for 8 weeks. During the 2 month experiments, mice fasted for one night before the experiment was changed from a standard diet (STD) to a HFD and then the mice were randomly divided into 5 groups, including 2 control and 3 treatment groups. Six mice were used in each group. […] Liver from the protection group supplemented with KMUP-1 HCl (1 mg/kg/day) were used to determine the HMG CoA reductase expression.
Within 2 months, the 3 day food intake average for each animal was measured. The weight gain and plasma lipid levels of each group were determined and compared to the non-treatment control group. Mouse blood was collected during the daytime by cardiac puncture followed by centrifugation at 90 g (Benchtop Centrifuge, U.S.A.) to separate the serum, and frozen at −80° C., for biochemical analysis using a Hitachi Clinical Analyzer 7070 (Hitachi High-Technologies Co. Tokyo, Japan). Agents used in the assays were Obtained from Merck & Co. (Kenilworth, N.J., U.S.A.). Triglyceride (TG), total cholesterol, HDL cholesterol and LDL cholesterol in mouse serum were measured by methods used in the clinic. To measure the hepatic TG, isolated liver were cut into small chips.

Where [3] appears, read: simvastatin, KMUP-1, Y27632 10^−5M, C3 exoenzyme.

Where a name gives a salt, the structure may show the parent alone.

As to `CC(C)=CCC/C(C)=C/CC/C(C)=C/COP(=O)(O)OP(=O)(O)O` [FPP, farnesyl pyrophosphate, reference compound], the “RhoA/ROCK II expression” value with ROCK II is listed as “increased”. In the experiment on ABCA1, the “expression of ABCA1” value was “suppressed”. In addition, the “expression of PPARγ” value in the experiment with PPARγ is “suppressed”.
For the molecule `CC(C)=CCC/C(C)=C/CC/C(C)=C/CC/C(C)=C/COP(=O)(O)OP(=O)(O)O` [GGPP, geranylgeranyl pyrophosphate, reference compound], in the experiment on ROCK II, the “RhoA/ROCK II expression” value is listed as “increased”. Also, in the experiment with ABCA1, the “expression of ABCA1” value was “suppressed”. For the same molecule, in the experiment on PPARγ, the “expression of PPARγ” value is “suppressed”.
As to `COc1ccccc1N1CCN(CCn2cnc3c2c(=O)n(C)c(=O)n3C)CC1` [KMUP-2 HCl], in the experiment with ROCKII, the ROCKII is 40.8 ± 3.7%. The PDE-5A with PDE-5A was 68.8 ± 5.3%.
In turn, `COc1ccccc1N1CCN(CCn2cnc3c2c(=O)n(C)c(=O)n3C)CC1` [KMUP-2, 7-[2-[4-(2-methoxybenzene)piperazinyl]ethyl]-1,3-dimethylxanthine] gave a Rho-kinase with Rho-kinase of 81.9 ± 8.2%.
Molecule `Cl.Cn1c(=O)c2c(ncn2CCN2CCN(c3ccc([N+](=O)[O-])cc3)CC2)n(C)c1=O` [KMUP-3 HCl, 7-[2-[4-(4-nitrobenzene)piperazinyl]ethyl]-1,3-dimethyl xanthine HCl complex] displayed an eNOS with eNOS [1] of 148.31 ± 7.5%. The ROCKII in the experiment on ROCKII came to 44.5 ± 2.9%. The molecule further registered a PDE-5A with PDE-5A of 63.6 ± 5.2%.
In the experiment with PPAR-γ, `Cn1c(=O)c2c(ncn2CCN2CCN(c3ccccc3[N+](=O)[O-])CC2)n(C)c1=O` [KMUP-3, 7-[2-[4-(2-nitrobenzene)piperazinyl]ethyl]-1,3-dimethylxanthine] gave a PPAR-γ of 140.8 ± 15.7%. The molecule also yielded an eNOS with eNOS [2] of 131.5 ± 13.7%. The p-HSL in the experiment on p-HSL is on record as 138.2 ± 14.4%. The molecule also showed a Rho-kinase in the experiment on Rho-kinase of 79.4 ± 6.9%.
In the experiment on eNOS [1], `Cn1c(=O)c2c(ncn2CCN2CCN(c3ccccc3[N+](=O)[O-])CC2)n(C)c1=O` [KMUP-4 HCl] returned an eNOS of 135.24 ± 7.5%. The ROCKII in the experiment with ROCKII was 37.6 ± 2.8%. In the experiment on PDE-5A, this molecule registered a PDE-5A of 73.4 ± 3.4%.
In the experiment with PPAR-γ, `Cn1c(=O)c2c(ncn2CCN2CCN(c3ccccc3[N+](=O)[O-])CC2)n(C)c1=O` [KMUP-4, 7-[2-[4-(2-nitrobenzene)piperazinyl]ethyl]-1,3-dimethylxanthine] gave a PPAR-γ of 143.7 ± 11.3%. In the experiment on eNOS [2], this molecule came in with an eNOS of 125.6 ± 13.6%. Besides, the p-HSL in the experiment on p-HSL amounted to 136.5 ± 12.6%. For the same molecule, in the experiment on Rho-kinase, the Rho-kinase is recorded as 83.7 ± 7.5%.
For the molecule `Nc1nc2c(nc(Sc3ccc(Cl)cc3)n2[C@@H]2O[C@@H]3CO[P@@](=O)(S)O[C@H]3[C@H]2O)c(=O)[nH]1` [Rp-8-pCPT-cGMPS, 8-(p-chloro-phenylthio)guanosine-3,5-monophosphorothioate], the “ROCK II expression” value in the experiment on ROCK II (10 μM cGMP antagonist) is “increased”.
As for `C[C@@H](N)[C@H]1CC[C@H](C(=O)Nc2ccncc2)CC1` [Y27632, reference compound], in the experiment with ROCK II (C3 exoenzyme 5 μg/ml, Y27632 10 μM), the “ROCK II expression” value is on record as “reduced”. The “ABCA1 expression (FIG. 24D)” value with ABCA1 (setting [3]) was “increased”. Also, the “PPARγ expression (FIG. 24C)” value with PPARγ (setting [3]) is on record as “increased”.
In the case of `CC(O)(CCO)CC(=O)O` (stereo not shown) [mevalonate, reference compound], the “HMG CoA reductase expression” value with HMG CoA reductase is “concentration-dependently reduced”.
Regarding `CCC(C)(C)C(=O)O[C@H]1C[C@@H](C)C=C2C=C[C@H](C)[C@H](CC[C@@H]3C[C@@H](O)CC(=O)O3)[C@H]21` [simvastatin, reference compound], in the experiment on mice fed with HFD, the HDL cholesterol worked out at 103.2 ± 2.5 mg/dL, the LDL cholesterol came to 15.3 ± 1.3 mg/dL, the TG in serum worked out at 82.7 ± 6.3 mg/dL and the TG of liver was 34.5 ± 2.** mg/dl. For the same molecule, in the experiment with mice fed with HFD, the “Tot. chol. (total cholesterol)” value stood at 133.7 ± 4.3 mg/dL and the “final BW (Body weight)” value is on record as 23.9 ± 0.9 g.
